Reference: ChEMBL document CHEMBL1149719, “Psammaplysin C: a new cytotoxic dibromotyrosine-derived metabolite from the marine sponge Druinella (= Psammaplysilla) purpurea” (J Nat Prod, 1992)
Values after ≈ are worked out from the molar mass of the structure shown.

What follows are compounds tested on HCT-116 (assay: Cytotoxicity against human HCT116 cells).
Format: functional, cell-based

SMILES | IC50 [µg/mL]
COC1=C(Br)C[C@]2(OC=C1Br)ON=C(C(=O)NCCCOc1c(Br)cc(CCN)cc1Br)[C@@H]2O [PSAMMAPLYSIN A] | 6 (≈ 8.19 µM)
COC1=C(Br)C[C@]2(OC=C1Br)ON=C(C(=O)NCCCOc1c(Br)cc(C(O)CN)cc1Br)[C@@H]2O (stereo partly drawn) [PSAMMAPLYSIN B] | 6 (≈ 8.01 µM)
CNCC(O)c1cc(Br)c(OCCCNC(=O)C2=NO[C@@]3(CC(Br)=C(OC)C(Br)=CO3)[C@H]2O)c(Br)c1 (stereo partly drawn) [PSAMMAPLYSIN C] | 3 (≈ 3.93 µM)
